US20250127805A1, “ALCOHOLIC FORMULATION WITH A MIXTURE OF ALKALOIDS, PRENOL LIPIDS AND FLAVONOIDS” (PONTIFICIA UNIVERSIDAD JAVERIANA, priority 2023, published 2025)

Tested on: cancer cell line type 3 model
Assay: Circulating blasts, tumor development and survival in type 3 model
Type: in vivo
Details: type 3 cancer cell line
Text: FIG. 12. Frequency circulating blasts in cancer cell line type 3 model.

COc1cccc2c1C(=O)c1c(O)c3c(c(O)c1C2=O)C[C@@](O)(C(=O)CO)C[C@@H]3O[C@H]1C[C@H](N)[C@H](O)[C@H](C)O1 [doxorubicin] was tested, and the tumor development was “decrease in tumor development”.
